In article PMC12251482, “Floridoside Phosphotriester Derivatives: Synthesis and Inhibition of Human Neutrophils’ Oxidative Burst” (Molecules, 2025):

Key:
[1] = test system: PMA-stimulated human neutrophils; experiment: PMA-induced neutrophils' oxidative burst, oxidation of luminol (chemiluminescence); type: cell-based; conditions: PMA 160 nM, mean ± SEM; for Luminol: highest obtained % of inhibition / inhibition at 100 µM: at 100 µM; for inhibition at 100 µM / IC50: Homo sapiens, Neutrophil; for inhibition at 100 µM: read-out: Luminol: highest obtained % of inhibition
Method: Luminol is easily oxidized by reactive species produced during neutrophils’ oxidative burst, resulting in a chemiluminescent signal. The effect of the compounds under study on the modulation of neutrophil oxidative burst was determined after stimulation with PMA, a known neutrophil activator, because its effect is closely analogous to that obtained during the phagocytic process. Following a previously reported method, in a 96-well plate, neutrophils were incubated in the dark at 37 °C for 5 min with luminol (500 μM) and the tested compounds (10–100 μM) or DMSO (final concentration 4%). Quercetin, a flavonoid known for its anti-inflammatory activity (0.3–5.0 μM), and the inhibitor of NADPH oxidase, DPI (0.01–10 μM), were used as controls. After incubation, PMA (160 nM) was added, and the chemiluminescence was measured in a microplate reader (Synergy HT, BIO-TEK Instruments, Inc., Winooski, VT, USA). Kinetic readings were initiated immediately after cell stimulation. Measurements were taken at the peak of the curve. […] Effects are expressed as the inhibition percentage of luminol oxidation. The results obtained represent at least three independent experiments. […]
3.4 Evaluation of neutrophils' oxidative burst
3.4.1 Oxidation of luminol
Luminol is easily oxidized by reactive species produced during neutrophils’ oxidative burst, resulting in a chemiluminescent signal. The eﬀect of the compounds under study on the modulation of neutrophil oxidative burst was determined after stimulation with PMA, a known neutrophil activator, because its eﬀect is closely analogous to that obtained during the phagocytic process. Following a previously reported method, in a 96-well plate, neutrophils were incubated in the dark at 37 °C for 5 minutes with luminol (500 µM) and the tested compounds (10 - 100 µM) or DMSO (ﬁnal concentration 4%). Quercetin, a ﬂavonoid known for its anti-inﬂammatory activity (0.3 - 5.0 µM), and the inhibitor of NADPH oxidase, DPI (0.01 - 10 µM), were used as positive and negative controls, respectively. After incubation, PMA (160 nM) was added, and the chemiluminescence was measured in a microplate reader (Synergy HT, BIO-TEK Instruments, Inc., Winooski, VT, USA). Kinetic readings were initiated immediately after cell stimulation. Measurements were taken at the […]
peak of the curve. […] Eﬀects are expressed as the inhibition percentage of luminol oxidation. The obtained results represent at least three independent experiments.

[2] = test system: PMA-stimulated human neutrophils; experiment: HOCl generation by PMA-stimulated neutrophils, oxidation of APF; type: cell-based; conditions: PMA 160 nM, mean ± SEM; for APF: highest obtained % of inhibition / inhibition at 50 µM: at 50 µM; for inhibition at 50 µM / IC50: Homo sapiens, Neutrophil; for inhibition at 50 µM: read-out: APF: highest obtained % of inhibition
Method: APF is a non-fluorescent derivative of fluorescein, which is oxidized by HOCl, ONOO^−, and HO^• [87], in a concentration-dependent manner. Its selectivity was tested using the myeloperoxidase (MPO) inhibitor, 4-aminobenzoic acid hydrazide (ABAH). The addition of ABAH to human neutrophils, stimulated with PMA, decreased the APF-dependent fluorescence signal to the level of the control assay, ruling out the involvement of HO^• and ONOO^− [88]. The previously established methodology for monitoring oxidative burst modulation was adapted. In a 96-well plate, neutrophils (2 × 10^6 cells/mL) were incubated in the dark at 37 °C for 5 min with APF (2 μM) and the tested compounds (10–100 μM) or DMSO (4%). Quercetin (0.3–5.0 μM) and DPI (0.01–10 μM) were used as controls. After incubation, PMA (160 nM) was added, and the fluorescence (excitation at 495 nm and emission at 528 nm) was measured in a microplate reader (Synergy HT, BIO-TEK Instruments, Inc., Winooski, VT, USA). Kinetic readings were initiated immediately after the addition of APF. Obtained values correspond to the slope measured between 5 and 15 min. Effects are expressed as the percentage inhibition of APF oxidation. The results obtained represent at least three independent experiments.
APF is a non-ﬂuorescent derivative of ﬂuorescein, which is oxidized by HOCl, [20] ONOO-, and HO• [21] in a concentration- dependent manner. Its selectivity was tested using the myeloperoxidase (MPO) inhibitor, 4-aminobenzoic acid hydrazide (ABAH). The addition of ABAH to human neutrophils, stimulated with PMA, decreased the APF-dependent ﬂuorescence signal to the level of the control assay, ruling out the involvement of HO• and ONOO− [22]. The previously established methodology for monitoring oxidative burst modulation was adapted. In a 96-well plate, neutrophils (2 x 10^6 cells/mL) were incubated in the dark at 37 °C for 5 minutes with APF (2 µM) and the tested compounds (10 - 100 µM) or DMSO (4%). Quercetin (0.3 - 5.0 µM) and DPI (0.01 - 10 µM) were used as positive and negative controls, respectively. After incubation, PMA (160 nM) was added, and the ﬂuorescence (excitation at 495 nm and emission at 528 nm) was measured in a microplate reader (Synergy HT, BIO-TEK Instruments, Inc., Winooski, VT, USA). Kinetic readings were initiated immediately after the addition of APF. Obtained values correspond to the slope measured between 5 and 15 minutes. Eﬀects are expressed as the percentage inhibition of APF oxidation. The obtained results represent at least three independent experiments. […]
(§1) GraphPad Prism 6 software was used to plot the inhibition percentage versus compound concentration curves, enabling the determination of the concentration required to achieve 50% inhibition (IC50). GraphPad Prism 6 software was also used to perform all statistical analyses.
(§2) […] was estimated by applying the one-way analysis (ANOVA), followed by the Bonferroni’s multiple comparisons test. In all cases, p-values < 0.05 were considered statistically signiﬁcant. The results are expressed as mean ± standard error of the mean (SEM).

[3] = test system: PMA-stimulated human neutrophils; experiment: H2O2 generation by PMA-stimulated neutrophils, oxidation of Amplex Red; type: cell-based; conditions: PMA 160 nM, mean ± SEM; for Amplex Red: highest obtained % of inhibition / inhibition at 50 µM: at 50 µM; for inhibition at 50 µM / IC50: Homo sapiens, Neutrophil; for inhibition at 50 µM: read-out: Amplex Red: highest obtained % of inhibition
Method: Amplex Red is a highly sensitive and chemically stable fluorescent probe for the extracellular detection of H2O2 [82]. The methodology used previously for monitoring the modulation of the oxidative burst was adapted. In a 96-well plate, neutrophils (2 × 10^6 cells/mL) were incubated in the dark at 37 °C for 5 min with Amplex Red (25 μM), horseradish peroxidase (0.25 U/mL), and the compounds under study (10–100 μM) or DMSO (4%). Quercetin (0.3–5.0 μM) and DPI (0.01–10 μM) were used as controls. After incubation, PMA (160 nM) was added, and the fluorescence (excitation at 530 nm and emission at 590 nm) was measured in a microplate reader (Synergy HT, BioTek Instruments, Inc., Winooski, VT, USA). Obtained values correspond to the slope measured between 5 and 10 min. Effects are expressed as the percentage inhibition of Amplex Red oxidation. The results obtained represent at least three independent experiments. […] 3.4.3 Oxidation of Amplex Red
Amplex Red is a highly sensitive and chemically stable ﬂuorescent probe for the extracellular detection of H2O2 [16]. The methodology used previously for monitoring the modulation of the oxidative burst was adapted.
In a 96-well plate, neutrophils (2 x 10^6 cells/mL) were incubated in the dark at 37 °C for 5 minutes with Amplex Red (25 µM), horseradish peroxidase (0.25 U/mL) , and the compounds under study (10 - 100 µM) or DMSO (4%). Quercetin (0.3 - 5.0 µM) and DPI (0.01 - 10 µM) were used as positive controls for inhibition. After incubation, PMA (160 nM) was added, and the ﬂuorescence (excitation at 530 nm and emission at 590 nm) was measured in a microplate reader (Synergy HT, BioTek Instruments, Inc., Winooski, VT, USA). Obtained values correspond to the slope measured between 5 and 10 minutes. Eﬀects are expressed as the percentage inhibition of Amplex Red oxidation. The obtained results represent at least three independent experiments.
as §1, §2

[4] = test system: RAW 264.7 macrophages; design: method as in PMID 11292070, doi:10.1016/j.fbio.2025.105894; conditions: read-out: IC50 for the inhibition of •NO; cited from earlier work

In the case of “3-Hydroxy-2-(galactopyranosyl)propyl bis(3-phenylpropyl) phosphate [Compound 1f]”, the “Luminol: highest obtained % of inhibition” value [1] is reported as under 20% ^100µM, the “APF: highest obtained % of inhibition” value [2] is reported as under 20% ^50µM and the “Amplex Red: highest obtained % of inhibition” value [3] is reported as under 20% ^50µM.

For “3-Hydroxy-2-galactopyranosylpropyl (bis(2-aminoethyl)) phosphate [Compound 1c]”, the “Luminol: highest obtained % of inhibition” value [1] was under 20% ^100µM, the “APF: highest obtained % of inhibition” value [2] was 22 ± 8% ^50µM and the “Amplex Red: highest obtained % of inhibition” value [3] was under 20% ^50µM.

For NCCOP(=O)(OCCN)OCC1OC(OC(CO)CO)C(O)C(O)C1O (stereo not shown) [Compound 1d], the inhibition at 100 µM [1] was under 20%, the inhibition at 50 µM [2] was 21 ± 6% and the inhibition at 50 µM [3] was 30 ± 9%.

COc1ccc(CCCOP(=O)(OCCCc2ccc(OC)c(OC)c2)OCC(CO)OC2OC(CO)C(O)C(O)C2O)cc1OC (stereo not shown) [Compound 1g, 3-Hydroxy-2-(galactopyranosyl)propyl (bis(3-(3,4-dimethoxyphenyl)propyl) phosphate] gave an inhibition at 100 µM [1] of under 20%, an inhibition at 50 µM [2] of under 20% and an inhibition at 50 µM [3] of under 20%.

c1ccc2c(c1)[I+]c1ccccc1-2 [DPI, diphenyleneiodonium chloride, reference compound] gave an IC50 [1] of 80 ± 10 nM, an IC50 [2] of 30 ± 3 nM and an IC50 [3] of 60 ± 4 nM.

Compound O=c1c(O)c(-c2ccc(O)c(O)c2)oc2cc(O)cc(O)c12 [Quercetin, quercetin, reference compound] has an IC50 [1] of 1200 ± 200 nM, an IC50 [2] of 2400 ± 200 nM and an IC50 [3] of 4100 ± 300 nM.

In the case of COc1ccc2c(c1)c(CC(=O)O)c(C)n2C(=O)c1ccc(Cl)cc1 [indomethacin], the IC50 [4] is listed as 10100 nM.
